This is an account of results in US20110183978A1, “Phenylpyri(mi)dinylazoles” (Bayer CropScience AG, priority 2009, published 2011).

As usually defined, the chromatographic logP is a lipophilicity value derived from retention on a column. Low values mean a more hydrophilic compound, high ones a more lipophilic compound.

A short description of the first data set: physchem. The conditions noted are these: LogPA.
For `COCC(=O)Nc1cc(-c2c(-c3cc(F)c(C#N)cc3F)nn(C)c2OC(F)F)ccn1` [Compound 199], the chromatographic logP amounted to 2.59.

`COCC(=O)Nc1cc(-c2c(-c3ccc(F)cc3O)nn(C)c2OC(F)F)ccn1` [Compound 201] came in with a chromatographic logP of 2.38.

As to `COCC(=O)Nc1cc(-c2c(-c3ccc(Cl)cc3F)nn(C)c2C(F)(F)F)ccn1` [Compound 202], the chromatographic logP is 3.45.

For `COCC(=O)Nc1cc(-c2cn(C3CCN(C(=O)OC(C)(C)C)CC3)nc2-c2ccc(F)cc2)ccn1` [Compound 204], the chromatographic logP turned out to be 3.51.

Molecule `CC(C)S(=O)(=O)Nc1cc(-c2cn(CC(F)F)nc2-c2ccc(F)cc2)ccn1` [Compound 234] showed a chromatographic logP of 3.96.

In turn, `CCOC(=O)Nc1cc(-c2cn(C(C)c3ccccc3F)nc2-c2ccc(F)cc2)ccn1` (stereo not shown) [Compound 263] had a chromatographic logP of 3.65.

The molecule `CCOC(=O)Nc1cc(-c2cn(Cc3ccccc3F)nc2-c2ccc(F)cc2)ccn1` [Compound 266] came in with a chromatographic logP of 3.24.

As to `CC(C)C(=O)Nc1cc(-c2cn(OC3CCCC3)nc2-c2ccc(F)cc2)ccn1` [Compound 270], the chromatographic logP amounted to 3.65.

With `CC(C)Cn1cc(-c2ccnc(S(C)(=O)=O)n2)c(-c2ccc(F)cc2)n1` [Compound 287], the chromatographic logP came out at 2.9.

As for `Cc1csc2c(-c3cn(CC(C)C)nc3-c3ccc(F)cc3)ncnc12` [Compound 288], the chromatographic logP is 3.85.

`Cc1csc2c(-c3cn(CC4CC4)nc3-c3ccc(F)cc3)ncnc12` [Compound 289]: the chromatographic logP was found to be 3.45.

In turn, `CCC(=O)Nc1cc(-c2c(-c3ccc(F)cc3)nn(C(C)C)c2C(F)(F)F)ccn1` [Compound 304] showed a chromatographic logP of 4.07.

The molecule `CC(C)C(=O)Nc1cc(-c2cn(Cc3cccc(C#N)c3)nc2-c2ccc(F)cc2)ccn1` [Compound 308] yielded a chromatographic logP of 2.69.

Regarding `CC(C)n1cc(-c2ncnc3c2CCCN3)c(-c2ccc(F)cc2)n1` [Compound 311], the chromatographic logP came out at 1.29.

As for `CC(C)n1cc(-c2ccnc(NC(c3ccc(F)cc3)C(F)(F)F)c2)c(-c2ccc(F)cc2)n1` (stereo not shown) [Compound 324], the chromatographic logP came to 3.88.

In the case of `CC(C)n1cc(-c2ccnc(NC(c3ccccc3)C(F)(F)F)c2)c(-c2ccc(F)cc2)n1` (stereo not shown) [Compound 325], the chromatographic logP was determined as 3.66.

In turn, `CCn1cc(-c2ccnc(NC(=O)CCCCC(=O)OC)c2)c(-c2ccc(F)cc2)n1` [Compound 330] displayed a chromatographic logP of 2.16.

`CCn1cc(-c2ccnc(NC(=O)c3cn(C)nc3C(F)F)c2)c(-c2ccc(F)cc2)n1` [Compound 333] came in with a chromatographic logP of 2.47.

For the molecule `CCn1cc(-c2ccnc(NC(=O)c3ccsc3C(F)F)c2)c(-c2ccc(F)cc2)n1` [Compound 334], the chromatographic logP was 3.27.

Regarding `CCn1cc(-c2ccnc(NC(=O)CCc3ccc(Cl)cc3)c2)c(-c2ccc(F)cc2)n1` [Compound 336], the chromatographic logP is 3.32.

Consider `Cn1cc(-c2ccnc(NC(=O)CCc3ccccc3)c2)c(-c2ccc(F)cc2)n1` [Compound 343], for which the chromatographic logP was 2.54.

`Cn1cc(-c2ccnc(NC(=O)c3ccc(F)cc3)c2)c(-c2ccc(F)cc2)n1` [Compound 344]: the chromatographic logP was 2.61.

As to `COCCOCC(=O)Nc1cc(-c2cn(C)nc2-c2ccc(F)cc2)ccn1` [Compound 345], the chromatographic logP was 1.96.

`COCC(=O)Nc1nccc(-c2cn(C(C)C)nc2-c2ccc(F)cc2)n1` [Compound 354] gave a chromatographic logP of 2.37.

In the case of `CC(C)C(=O)Nc1nccc(-c2cn(C(C)C)nc2-c2ccc(F)cc2)n1` [Compound 355], the chromatographic logP came out at 2.55.

Molecule `CC(C)n1cc(-c2ccnc(NC(=O)C3CC3)n2)c(-c2ccc(F)cc2)n1` [Compound 356] had a chromatographic logP of 2.49.

`CC(=O)Nc1nccc(-c2cn(CC(C)C)nc2-c2ccc(F)cc2)n1` [Compound 357] registered a chromatographic logP of 2.44.

`COCCn1cc(-c2ccnc(NC(C)C)n2)c(-c2ccc(F)cc2)n1` [Compound 358]: the chromatographic logP amounted to 1.79.

Turning to `CC(C)Nc1nccc(-c2cn(CCCl)nc2-c2ccc(F)cc2)n1` [Compound 359], the chromatographic logP amounted to 2.05.

As for `CCC(C)n1cc(-c2ccnc(NC(C)C)n2)c(-c2ccc(F)cc2)n1` (stereo not shown) [Compound 360], the chromatographic logP turned out to be 2.41.

In the case of `CC(C)Cn1cc(-c2ccnc(NC(C)C3CC3)n2)c(-c2ccc(F)cc2)n1` (stereo not shown) [Compound 372], the chromatographic logP worked out at 2.73.

The data set is the same for the next values; noted with them: pH 2.3, LogP (pH 2.3).
Consider `CC(C)n1cc(-c2ccnc(N)c2)c(-c2ccc(F)cc2)n1` [[III-1], 4-[3-(4-Fluorophenyl)-1-isopropyl-1H-pyrazol-4-yl]pyridin-2-amine], for which the chromatographic logP was determined as 1.22.

As for `COCCn1cc(-c2ccnc(N)c2)c(-c2ccc(F)cc2)n1` [[III-2], 4-[3-(4-Fluorophenyl)-1-(2-methoxyethyl)-1H-pyrazol-4-yl]pyridin-2-amine], the chromatographic logP amounted to 0.98.

The molecule `CCn1cc(-c2ccnc(N)c2)c(-c2ccc(F)cc2)n1` [[III-3], 4-[1-Ethyl-3-(4-fluorophenyl)-1H-pyrazol-4-yl]pyridin-2-amine] registered a chromatographic logP of 0.97.

Still in this data set, the particulars now being: pH 2.7, logP (pH 2.7).
As for `CC(C)n1cc(-c2ccnc3ccccc23)c(-c2ccc(F)cc2)n1` [[I-1], 4-[3-(4-Fluorophenyl)-1-isopropyl-1H-pyrazol-4-yl]quinoline], the chromatographic logP was 2.23.

For `CCC(=O)Nc1cc(-c2cn(CCOC)nc2-c2ccc(F)cc2)ccn1` [[I-2], N-{4-[3-(4-Fluorophenyl)-1-(2-methoxyethyl)-1H-pyrazol-4-yl]pyridin-2-yl}propanamide], the chromatographic logP turned out to be 1.61.

For the molecule `N#Cc1cccc(Cn2cc(-c3ccncc3)c(-c3ccc(F)cc3)n2)c1` [[I-3], 3-{[3-(4-Fluorophenyl)-4-(pyridin-4-yl)-1H-pyrazol-1-yl]methyl}benzonitrile], the chromatographic logP turned out to be 1.51.

Consider `N#Cc1cccc(Cn2ncc(-c3ccncc3)c2-c2ccc(F)cc2)c1` [[I-4], 3-{[5-(4-Fluorophenyl)-4-(pyridin-4-yl)-1H-pyrazol-1-yl]methyl}benzonitrile], for which the chromatographic logP came out at 1.38.

In the case of `CC(C)n1cc(-c2ccnc(NC(=O)C3CC3)c2)c(-c2ccc(F)cc2)n1` [[I-c-1], N-{4-[3-(4-Fluorophenyl)-1-isopropyl-1H-pyrazol-4-yl]pyridin-2-yl}cyclopropanecarboxamide], the chromatographic logP worked out at 2.07.

With `CC(C)Cn1cc(-c2ccnc(NC(=O)C(C)C)c2)c(-c2ccc(F)cc2)n1` [[I-c-2], N-{4-[3-(4-fluorophenyl)-1-isobutyl-1H-pyrazol-4-yl]pyridin-2-yl}-2-methylpropanamide], the chromatographic logP worked out at 2.89.

Consider `CC(C)n1cc(-c2ccncc2)c(-c2c(F)cccc2F)n1` [[I-d-1], 4-[3-(2,6-Difluorophenyl)-1-isopropyl-1H-pyrazol-4-yl]pyridine], for which the chromatographic logP came to 1.4.

Turning to `CC(C)n1ncc(-c2ccncc2)c1-c1c(F)cccc1F` [[I-d-2], 4-[5-(2,6-Difluorophenyl)-1-isopropyl-1H-pyrazol-4-yl]pyridine], the chromatographic logP was 1.54.

`CCC(=O)Nc1nccc(-c2cn(C(C)C)nc2-c2ccc(F)cc2)n1` [[I-g-1], N-{4-[3-(4-Fluorophenyl)-1-isopropyl-1H-pyrazol-4-yl]pyrimidin-2-yl}propanamide]: the chromatographic logP was 2.35.

In turn, `CC(C)n1cc(-c2ccnc(N)c2)c(-c2ccc(F)cc2)n1` [[III-1], 4-[3-(4-Fluorophenyl)-1-isopropyl-1H-pyrazol-4-yl]pyridin-2-amine] registered a chromatographic logP of 1.22.

`COCCn1cc(-c2ccnc(N)c2)c(-c2ccc(F)cc2)n1` [[III-2], 4-[3-(4-Fluorophenyl)-1-(2-methoxyethyl)-1H-pyrazol-4-yl]pyridin-2-amine] registered a chromatographic logP of 0.98.

As to `CCn1cc(-c2ccnc(N)c2)c(-c2ccc(F)cc2)n1` [[III-3], 4-[1-Ethyl-3-(4-fluorophenyl)-1H-pyrazol-4-yl]pyridin-2-amine], the chromatographic logP was determined as 0.97.
